Measurements reported in US12454525B2, “IL4I1 inhibitors and methods of use” (Merck Sharp & Dohme LLC, priority 2020, dated 2025).

target: T1, recombinant IL4I1 (Homo sapiens, UniProt Q96RQ9); assay: IL4I1 Enzymatic Assay (Amplex Red/HRP coupled H2O2 detection); type: biochemical; conditions: 240 min; four-hour pre-incubation with compound; 1 nM IL4I1, 1 mM each Phe/Tyr/Trp; ten-point titration; fluorescence readout; read-out: Potency EC50 (nM) (240 min)
T1 construct: purchased R&D Systems 5684-AO-020
T1 sequence (Q96RQ9 22-567): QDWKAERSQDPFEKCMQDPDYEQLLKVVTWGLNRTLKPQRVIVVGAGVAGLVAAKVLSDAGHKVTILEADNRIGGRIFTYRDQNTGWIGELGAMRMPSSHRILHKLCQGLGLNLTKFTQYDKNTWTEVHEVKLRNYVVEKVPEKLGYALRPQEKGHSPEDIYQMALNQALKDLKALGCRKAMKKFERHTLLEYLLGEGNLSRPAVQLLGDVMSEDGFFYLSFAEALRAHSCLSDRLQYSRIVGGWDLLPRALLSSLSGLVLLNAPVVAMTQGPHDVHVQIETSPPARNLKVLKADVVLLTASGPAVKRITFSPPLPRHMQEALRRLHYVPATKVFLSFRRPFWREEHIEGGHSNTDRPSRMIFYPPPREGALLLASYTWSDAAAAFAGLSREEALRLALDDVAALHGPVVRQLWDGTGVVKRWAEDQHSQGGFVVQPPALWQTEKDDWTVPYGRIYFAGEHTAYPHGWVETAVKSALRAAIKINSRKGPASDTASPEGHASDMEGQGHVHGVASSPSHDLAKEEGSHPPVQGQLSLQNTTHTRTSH
Experimental: Interleukin 4 inducible protein 1 (IL4I1) is an L-amino oxidase that catalyzes the oxidation of aromatic residues (Phe, Trp and Tyr): L-amino acid+H2O+O2→2-oxo acid+NH3+H2O2. Equal molar of H2O2 and the corresponding alpha-ketoacid are produced when IL4I1 and substrate are added. In this assay, the hydrogen peroxide generated by IL4I1 is then detected through a coupled reaction with Amplex Red (10-acetyl-3,7-dihydroxyphenoxazine) and […] (HRP) to produce Resorufin product that could be detected in the form of fluorescence signals. The assessment of the inhibitory effect of small molecules (EC50) on IL4I1 is measured by the effectiveness of the compounds to inhibit the production of H2O2.
Using this assay, the potency (EC50) of each compound was determined from a ten-point (1:3 serial dilution) titration curve using the following outlined procedure. To each well of a black flat-bottom Greiner (Cat #781076) 384 well-plate, 25 nL of compound (0.1% DMSO in final assay volume of 25 μL) was dispensed, followed by the addition of 12.5 μL of 1x assay buffer (50 mM Hepes 7.0 and 0.005% Tween20 (Sigma, Cat #P8341; low peroxide grade)) containing 2 nM of recombinant IL4I1 (R&D Systems, Cat #5684-AO-020). Plates were placed in an ambient temperature humidified chamber for a four-hour pre-incubation with compound. Subsequently, each reaction was initiated by the addition of 12.5 μL 1x assay buffer containing 2 mM of each aromatic amino acids (Phe/Tyr/Trp), 0.1 mM Amplex Red and 2 U/mL of HRP. The final reaction in each well of 25 μL consists of 1 nM of IL411, 1 mM of each residues (Phe, Tyr and Trp), 0.05 mM Amplex Red and 1 U/mL of HRP. It should be noted that the concentrations of Amplex Red and HRP used here are in excess such that the conversion of H2O2 to Resorufin product occurs instantaneously and non-rate limiting. Reactions were allowed to proceed for 120 minutes followed by fluorescence readout on a Spectramax with the following set parameters: 544 nm excitation/590 nm emission, 570 nm cutoff (EnVision is an alternative reader). Dose-response curves were generated by plotting percent effect (% product conversion; Y-axis) vs. Log10 compound concentrations (X-axis). EC50 values were calculated using a non-linear regression, four-parameters sigmoidal dose-response model and are shown in Table 16.

Structure (SMILES)	EC50 [nM]
O=C1CCCN1Cc1ccc(Cn2c(=O)[nH]c3ccccc32)cn1 [Example 41, 1-((6-((2-oxopyrrolidin-1-yl)methyl)pyridin-3-yl)methyl)-1,3-dihydro-2H-benzo[d]imidazol-2-one]	127
N#Cc1n[nH]c2ccc(Cn3c(=O)[nH]c4ccccc43)cc12 [Example 42, 5-((2-oxo-2,3-dihydro-1H-benzo[d]imidazol-1-yl)methyl)-1H-indazole-3-carbonitrile]	2
CC(=O)NCc1ccc(Cn2c(=O)[nH]c3ccccc32)cc1Cl [Example 44, N-(2-chloro-4-((2-oxo-2,3-dihydro-1H-benzo[d]imidazol-1-yl)methyl)benzyl)acetamide]	13
CNC(=O)c1ccc(Cn2c(=O)[nH]c3ccccc32)s1 [Example 47, N-methyl-5-[(2-oxo-2,3-dihydro-1H-benzimidazol-1-yl)methyl]thiophene-2-carboxamide]	3
CC(=O)NC(C)(C)c1ccc(Cn2c(=O)[nH]c3ccccc32)cc1 [Example 51, N-(2-{4-[(2-oxo-2,3-dihydro-1H-benzimidazol-1-yl)methyl]phenyl}propan-2-yl)acetamide]	54
O=c1[nH]c2ccccc2n1Cc1ccc2c(c1)CCN2 [Example 52, 1-(indolin-5-ylmethyl)-1,3-dihydro-2H-benzo[d]imidazol-2-one]	18
Cn1cnnc1Cc1ccc(Cn2c(=O)[nH]c3ccccc32)cc1 [Example 53, 1-(4-((4-methyl-4H-1,2,4-triazol-3-yl)methyl)benzyl)-1,3-dihydro-2H-benzo[d]imidazol-2-one]	12
Cc1cc(Cn2c(=O)[nH]c3ccccc32)ccc1Cc1nnco1 [Example 54, 1-(4-((1,3,4-oxadiazol-2-yl)methyl)-3-methylbenzyl)-1,3-dihydro-2H-benzo[d]imidazol-2-one]	7
CC(C)C1CC(Cn2c(=O)[nH]c3ccccc32)C1 (stereo not drawn) [Example 57, 1-{[3-(propan-2-yl)cyclobutyl]methyl}-1,3-dihydro-2H-benzimidazol-2-one]	3040
O=c1[nH]c2ccccc2n1CCC1CCCCC1 [Example 58, 1-(2-cyclohexylethyl)-1,3-dihydro-2H-benzimidazol-2-one]	936
O=c1[nH]c2ccccc2n1CCC1CCCO1 (stereo not drawn) [Example 60, 1-[2-(oxolan-2-yl)ethyl]-1,3-dihydro-2H-benzimidazol-2-one]	8660

More lines, in order of falling EC50, values ahead:

EC50 [nM]	Structure (SMILES)
2930	O=c1[nH]c2ccccc2n1CC1CCCOC1 (stereo not drawn) [Example 59, 1-[(oxan-3-yl)methyl]-1,3-dihydro-2H-benzimidazol-2-one]
2480	O=c1[nH]c2ccccc2n1Cc1cccnc1 [Example 56, 1-(pyridin-3-ylmethyl)-1,3-dihydro-2H-benzo[d]imidazol-2-one]
16	CNC(=O)c1cc(C)cc(Cn2c(=O)[nH]c3ccccc32)c1 [Example 48, N,3-dimethyl-5-((2-oxo-2,3-dihydro-1H-benzo[d]imidazol-1-yl)methyl)benzamide]
10	O=C1N(Cc2ccc(Cn3c(=O)[nH]c4ccccc43)cc2)CCC1(F)F [Example 43, 1-(4-((3,3-difluoro-2-oxopyrrolidin-1-yl)methyl)benzyl)-1,3-dihydro-2H-benzo[d]imidazol-2-one]
10	CC(=O)NCc1ccc(Cn2c(=O)[nH]c3ccccc32)cc1C [Example 49, N-(2-methyl-4-((2-oxo-2,3-dihydro-1H-benzo[d]imidazol-1-yl)methyl)benzyl)acetamide]
9	CC(=O)NCc1ccc(Cn2c(=O)[nH]c3ccccc32)c(C)c1 [Example 50, N-({3-methyl-4-[(2-oxo-2,3-dihydro-1H-benzimidazol-1-yl)methyl]phenyl}methyl)acetamide]
0.8	O=c1[nH]c2ccccc2n1Cc1ccc2c(c1)CCC2 [Example 55, 1-((2,3-dihydro-1H-inden-5-yl)methyl)-1,3-dihydro-2H-benzo[d]imidazol-2-one]
